In the supplement of paper PMC10627819:

System: S. pneumoniae D39V
Experiment: fitness (endpoint OD595 vs no drug) (fraction); higher = more growth
Procedure, shortened: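 Plates with 384 wells were inoculated at OD595 0.01 using 30 µl of TSB, LB Lennox or CY, or 55 µl for S. pneumoniae. Incubation was at 37 °C, with OD595 measured every 30 min for 14 h. Fitness is the stationary-phase transition optical density over the robust mean of no-drug control wells, after first-reading background subtraction; it is capped at 1.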

CN(C)[C@@H]1C(O)=C(C(N)=O)C(=O)[C@@]2(O)C(O)=C3C(=O)c4c(O)ccc(Cl)c4[C@@](C)(O)[C@H]3C[C@@H]12 [Chlortetracycline] + C[C@@H](O)[C@H]1C(=O)N2C(C(=O)O)=C(SCCNC=N)C[C@H]12 [Imipenem]
fitness
Conditions | first compound 0.012 µg/mL | first compound 0.024 µg/mL | first compound 0.048 µg/mL | first compound 0.375 µg/mL | first compound 0.75 µg/mL | first compound 1.5 µg/mL
partner 0.005 µg/mL | – | – | – | 0.0486 | 0.0409 | 0.0284
partner 0.0065 µg/mL | 0.894 | 0.799 | 0.686 | – | – | –
partner 0.01 µg/mL | – | – | – | 0.0501 | 0.0583 | 0.0373
partner 0.013 µg/mL | 0.863 | 0.865 | 0.837 | – | – | –
partner 0.02 µg/mL | – | – | – | 0.0339 | 0.065 | 0.065
partner 0.026 µg/mL | 0.724 | 0.761 | 0.724 | – | – | –

CC(=O)Oc1ccccc1C(=O)O [Acetylsalicylic acid] + O=C1CN(/N=C/c2ccc([N+](=O)[O-])o2)C(=O)N1 [Nitrofurantoin]
fitness
Conditions | partner 1.285 µg/mL | partner 2 µg/mL | partner 2.57 µg/mL | partner 4 µg/mL | partner 8 µg/mL
first compound 250 µg/mL | 0.979 | 0.9 | 0.973 | 0.91 | 0.813
first compound 500 µg/mL | 0.974 | 0.835 | 0.947 | 0.786 | 0.742
first compound 1000 µg/mL | 0.931 | 0.513 | 0.93 | 0.446 | 0.467

partner 5.14 µg/mL, one replicate
Conditions | fitness
first compound 250 µg/mL | 0.93
first compound 500 µg/mL | 0.888
first compound 1000 µg/mL | 0.813

CC(=O)Oc1ccccc1C(=O)O [Acetylsalicylic acid] + CN(C)c1cc(NC(=O)CNC(C)(C)C)c(O)c2c1C[C@H]1C[C@H]3[C@H](N(C)C)C(O)=C(C(N)=O)C(=O)[C@@]3(O)C(O)=C1C2=O [Tigecycline]
fitness
Conditions | partner 0.325 µg/mL | partner 0.65 µg/mL | partner 1.3 µg/mL | partner 2.6 µg/mL
first compound 250 µg/mL | 0.934 | 0.968 | 1 | 0.932
first compound 500 µg/mL | 0.904 | 0.985 | 0.949 | 0.95
first compound 1000 µg/mL | 0.797 | 0.763 | 0.803 | 0.718

CC(=O)Oc1ccccc1C(=O)O [Acetylsalicylic acid] + C[C@H]1COc2c(N3CCN(C)CC3)c(F)cc3c(=O)c(C(=O)O)cn1c23 [Levofloxacin]
fitness
Conditions | partner 0.1725 µg/mL | partner 0.2 µg/mL | partner 0.345 µg/mL | partner 0.4 µg/mL | partner 0.69 µg/mL | partner 0.8 µg/mL
first compound 250 µg/mL | 0.992 | 0.92 | 0.954 | 0.868 | 0.671 | 0.673
first compound 500 µg/mL | ≥ 1 | 0.929 | 0.9 | 0.898 | 0.692 | 0.653
first compound 1000 µg/mL | 0.95 | 0.881 | 0.938 | 0.734 | 0.716 | 0.513

C[C@H]1c2cccc(O)c2C(=O)C2=C(O)[C@]3(O)C(=O)C(C(N)=O)=C(O)[C@@H](N(C)C)[C@@H]3[C@@H](O)[C@@H]21 [Doxycycline] + CO[C@@]12[C@H](COC(N)=O)C3=C(C(=O)C(C)=C(N)C3=O)N1C[C@@H]1N[C@@H]12 [Mitomycin C]
fitness, one replicate
Conditions | first compound 0.003875 µg/mL | first compound 0.00775 µg/mL | first compound 0.031 µg/mL | first compound 0.062 µg/mL
partner 0.002 µg/mL | 0.897 | 0.823 | 0.833 | 0.64
partner 0.004 µg/mL | 0.848 | 0.828 | 0.783 | 0.616
partner 0.008 µg/mL | 0.615 | 0.622 | 0.622 | 0.456

fitness
Conditions | partner 0.001075 µg/mL | partner 0.002 µg/mL | partner 0.00215 µg/mL | partner 0.004 µg/mL | partner 0.0043 µg/mL | partner 0.008 µg/mL
first compound 0.0155 µg/mL | 0.863 | 0.82 | 0.819 | 0.792 | 0.717 | 0.699
first compound 0.031 µg/mL | 0.816 | – | 0.814 | – | 0.649 | –
first compound 0.062 µg/mL | 0.743 | – | 0.771 | – | 0.63 | –

CC(=O)Oc1ccccc1C(=O)O [Acetylsalicylic acid] + CN(C)C(=O)C(CCN1CCC(O)(c2ccc(Cl)cc2)CC1)(c1ccccc1)c1ccccc1 [Loperamide]
fitness
Conditions | partner 17.14 µg/mL | partner 20 µg/mL | partner 34.28 µg/mL | partner 40 µg/mL | partner 80 µg/mL
first compound 250 µg/mL | 0.987 | 0.989 | 0.945 | 0.982 | ≥ 1
first compound 500 µg/mL | 0.972 | ≥ 1 | 0.981 | ≥ 1 | ≥ 1
first compound 1000 µg/mL | 0.859 | 0.987 | 0.879 | 0.967 | 0.937

partner 68.57 µg/mL, one replicate
Conditions | fitness
first compound 250 µg/mL | 0.931
first compound 500 µg/mL | 0.927
first compound 1000 µg/mL | ≥ 1

CC(=O)Oc1ccccc1C(=O)O [Acetylsalicylic acid] + CN[C@@H]1[C@H](O[C@H]2[C@H](O[C@H]3[C@H](O)[C@@H](O)[C@H](N=C(N)N)[C@@H](O)[C@@H]3N=C(N)N)O[C@@H](C)[C@]2(O)C=O)O[C@@H](CO)[C@H](O)[C@H]1O [Streptomycin]
fitness
Conditions | first compound 250 µg/mL | first compound 500 µg/mL | first compound 1000 µg/mL
partner 2 µg/mL | 0.954 | 0.928 | 0.806
partner 4 µg/mL | 0.977 | 0.892 | –
partner 8 µg/mL | 0.929 | 0.869 | –

partner 16 µg/mL, one replicate
Conditions | fitness
first compound 250 µg/mL | 0.772
first compound 500 µg/mL | 0.605
first compound 1000 µg/mL | 0.159

C[C@H]1c2cccc(O)c2C(=O)C2=C(O)[C@]3(O)C(=O)C(C(N)=O)=C(O)[C@@H](N(C)C)[C@@H]3[C@@H](O)[C@@H]21 [Doxycycline] + CO/N=C(\C(=O)N[C@@H]1C(=O)N2C(C(=O)[O-])=C(C[N+]3(C)CCCC3)CS[C@H]12)c1csc(N)n1 [Cefepime]
fitness, one replicate
Conditions | first compound 0.003875 µg/mL | first compound 0.00775 µg/mL | first compound 0.031 µg/mL | first compound 0.062 µg/mL
partner 0.0078 µg/mL | ≥ 1 | ≥ 1 | 0.936 | 0.84
partner 0.0155 µg/mL | ≥ 1 | 0.991 | 0.888 | 0.779
partner 0.031 µg/mL | 0.637 | 0.783 | 0.834 | 0.684

fitness
Conditions | partner 0.007 µg/mL | partner 0.0078 µg/mL | partner 0.014 µg/mL | partner 0.0155 µg/mL | partner 0.028 µg/mL | partner 0.031 µg/mL
first compound 0.0155 µg/mL | 0.944 | ≥ 1 | 0.934 | 0.974 | 0.858 | 0.882
first compound 0.031 µg/mL | 0.951 | – | 0.938 | – | 0.88 | –

CC(=O)Oc1ccccc1C(=O)O [Acetylsalicylic acid] + O=C(O)c1cn(C2CC2)c2cc(N3CCNCC3)c(F)cc2c1=O [Ciprofloxacin]
fitness
Conditions | first compound 250 µg/mL | first compound 500 µg/mL | first compound 1000 µg/mL
partner 0.125 µg/mL | 0.963 | 0.907 | 0.863
partner 0.25 µg/mL | 0.883 | 0.904 | 0.833
partner 0.5 µg/mL | 0.835 | 0.835 | 0.719

CC(=O)Oc1ccccc1C(=O)O [Acetylsalicylic acid] + C[C@H]1c2cccc(O)c2C(=O)C2=C(O)[C@]3(O)C(=O)C(C(N)=O)=C(O)[C@@H](N(C)C)[C@@H]3[C@@H](O)[C@@H]21 [Doxycycline]
fitness, one replicate
Conditions | first compound 250 µg/mL | first compound 500 µg/mL | first compound 1000 µg/mL
partner 0.003875 µg/mL | ≥ 1 | ≥ 1 | 0.95
partner 0.00775 µg/mL | 0.998 | ≥ 1 | ≥ 1

fitness
Conditions | first compound 250 µg/mL | first compound 500 µg/mL | first compound 1000 µg/mL
partner 0.0155 µg/mL | 0.907 | 0.941 | 0.842
partner 0.031 µg/mL | 0.825 | 0.822 | 0.668

CC(=O)Oc1ccccc1C(=O)O [Acetylsalicylic acid] + CC1=C(C(=O)O)N2C(=O)[C@@H](NC(=O)[C@H](N)c3ccccc3)[C@H]2SC1 [Cephalexin]
fitness, one replicate
Conditions | first compound 250 µg/mL | first compound 500 µg/mL | first compound 1000 µg/mL
partner 0.125 µg/mL | 0.955 | 0.996 | 0.935
partner 0.25 µg/mL | 0.931 | 0.961 | 0.913
partner 0.5 µg/mL | 0.923 | 0.932 | 0.92

fitness
Conditions | first compound 250 µg/mL | first compound 500 µg/mL | first compound 1000 µg/mL
partner 1 µg/mL | 0.902 | 0.89 | 0.727
partner 2 µg/mL | 0.611 | – | 0.391
partner 4 µg/mL | 0.0549 | 0.0473 | 0.0319

CC(=O)Oc1ccccc1C(=O)O [Acetylsalicylic acid] + CC[C@H]1OC(=O)[C@H](C)[C@@H](O[C@H]2C[C@@](C)(OC)[C@@H](O)[C@H](C)O2)[C@H](C)[C@@H](O[C@@H]2O[C@H](C)C[C@H](N(C)C)[C@H]2O)[C@](C)(OC)C[C@@H](C)C(=O)[C@H](C)[C@@H](O)[C@]1(C)O [Clarithromycin]
fitness, one replicate
Conditions | first compound 250 µg/mL | first compound 500 µg/mL | first compound 1000 µg/mL
partner 0.007812 µg/mL | 0.824 | 0.781 | 0.281
partner 0.01562 µg/mL | 0.783 | 0.763 | 0.193
partner 0.03125 µg/mL | 0.621 | 0.627 | 0.257

fitness
Conditions | partner 0.0625 µg/mL | partner 0.07 µg/mL | partner 0.125 µg/mL | partner 0.14 µg/mL | partner 0.25 µg/mL | partner 0.28 µg/mL
first compound 250 µg/mL | 0.642 | 0.195 | 0.369 | 0.137 | 0.133 | 0.104
first compound 500 µg/mL | 0.586 | 0.228 | 0.359 | 0.167 | 0.147 | 0.108
first compound 1000 µg/mL | 0.405 | 0.155 | 0.148 | 0.139 | 0.0751 | 0.0935

CC(=O)Oc1ccccc1C(=O)O [Acetylsalicylic acid] + CO[C@H]1/C=C/O[C@@]2(C)Oc3c(C)c(O)c4c(O)c(c(/C=N/N5CCN(C)CC5)c(O)c4c3C2=O)NC(=O)/C(C)=C\C=C\[C@H](C)[C@H](O)[C@@H](C)[C@@H](O)[C@@H](C)[C@H](OC(C)=O)[C@@H]1C [Rifampicin]
fitness
Conditions | first compound 250 µg/mL | first compound 500 µg/mL | first compound 1000 µg/mL
partner 0.025 µg/mL | 0.932 | 0.913 | 0.81
partner 0.05 µg/mL | – | 0.899 | 0.668
partner 0.1 µg/mL | 0.476 | 0.37 | –

partner 0.2 µg/mL, one replicate
Conditions | fitness
first compound 250 µg/mL | 0
first compound 500 µg/mL | 0
first compound 1000 µg/mL | 0

CC(=O)Oc1ccccc1C(=O)O [Acetylsalicylic acid] + Clc1ccc(COC(Cn2ccnc2)c2ccc(Cl)cc2Cl)c(Cl)c1 [Miconazole]
fitness
Conditions | partner 1.073 µg/mL | partner 1.25 µg/mL | partner 2.145 µg/mL | partner 2.5 µg/mL | partner 4.29 µg/mL | partner 5 µg/mL
first compound 250 µg/mL | ≥ 1 | 0.902 | 0.943 | 0.863 | 0.9 | 0.937
first compound 500 µg/mL | ≥ 1 | 0.816 | 0.918 | 0.772 | 0.858 | 0.844
first compound 1000 µg/mL | ≥ 1 | 0.643 | 0.957 | 0.589 | 0.875 | 0.656
